Measurements from ChEMBL document CHEMBL1949500, “Discovery of dimeric inhibitors by extension into the entrance channel of HIV-1 reverse transcriptase” (Bioorg Med Chem Lett, 2012).

Legend:
MT2 = experiment: (§1) Cytotoxicity against human MT2 cells by MTT assay; format: cell-based; settings: mt2
[1] = tested on: Human immunodeficiency virus 1; experiment: Antiviral activity against HIV1 3B infected in human MT2 cells assessed as inhibition of virus-induced cytopathic effect by MTT assay; format: functional, organism-based
[2] = as §1; format: cell-based; settings: MT2 cells
[3] = Human immunodeficiency virus 1, 3B, MT2, read-out: EC50

Structure (SMILES) | CC50 (MT2) | EC50 [1, 3] | EC50 ([1]; mt2) | CC50 [2]
COCCOCCOc1nc(Nc2ccc(C#N)c(OCC=C(C)C)c2)nc(OC)n1 | 13 µM | 0.15 µM |  | 
COCCOc1nc(Nc2ccc(C#N)c(OCC=C(C)C)c2)nc(OC)n1 | 8.6 µM | 0.097 µM |  | 
COc1nc(NCCCNc2nc(Nc3ccc(C#N)c(OCC=C(C)C)c3)nc(OC)n2)nc(Nc2ccc(C#N)c(OCC=C(C)C)c2)n1 | 50 µM |  | Not Active | 
COc1nc(Nc2ccc(C#N)c(OCC=C(C)C)c2)nc(OCCN2CCN(C)CC2)n1 | 7 µM | 0.32 µM |  | 
CCc1nc(Nc2ccc(C#N)c(OCC=C(C)C)c2)nc(OCCOCCOC)n1 | 9.8 µM | 0.54 µM |  | 
COc1nc(Nc2ccc(C#N)c(OCC=C(C)C)c2)nc(OCCOc2nc(Nc3ccc(C#N)c(OCC=C(C)C)c3)nc(OC)n2)n1 | 42 µM | 0.39 µM |  | 
COc1nc(Nc2ccc(C#N)c(OCC=C(C)C)c2)nc(OCCCOc2nc(Nc3ccc(C#N)c(OCC=C(C)C)c3)nc(OC)n2)n1 | 21 µM | 0.17 µM |  | 
COCCOCCOCCOc1nc(Nc2ccc(C#N)c(OCC=C(C)C)c2)nc(OC)n1 | 4.2 µM | 0.38 µM |  | 
COc1nc(Nc2ccc(C#N)c(OCC=C(C)C)c2)nc(OCCC2CCCCO2)n1 (racemic) | 4.2 µM | 1.2 µM |  | 
CCc1nc(Nc2ccc(C#N)c(OCC=C(C)C)c2)nc(OCCOC)n1 | 2.1 µM | 0.057 µM |  | 
Cc1ccnc2c1NC(=O)c1cccnc1N2C1CC1 [NEVIRAPINE] |  |  |  | > 100 µM
COc1nc(Nc2ccc(C#N)c(OCC=C(C)C)c2)nc(OCCCCOc2nc(Nc3ccc(C#N)c(OCC=C(C)C)c3)nc(OC)n2)n1 | > 100 µM |  | Not Active | 
COc1nc(Nc2ccc(C#N)c(OCC=C(C)C)c2)nc(OCCOCCOc2nc(Nc3ccc(C#N)c(OCC=C(C)C)c3)nc(OC)n2)n1 | > 100 µM |  | Not Active | 
COc1nc(NCCNc2nc(Nc3ccc(C#N)c(OCC=C(C)C)c3)nc(OC)n2)nc(Nc2ccc(C#N)c(OCC=C(C)C)c2)n1 | 6 µM |  | Not Active | 
